# Laboratory results published in patent publication US20230407243A1, “GENETIC PLATFORM TO INVESTIGATE THE FUNCTIONS OF BACTERIAL DRUG EFFLUX PUMPS” (priority 2022, published 2023).
# Read-outs that look alike come from different tables or passages of the source.
# Assays:
# Type in all cases: cell-based, Escherichia coli
# wild-type E. coli K-12 = tested on: wild-type E. coli K-12
# Description: (§1) Synergy measurement using checkerboard analysis was performed in 96-well microtiter plates using the microdilution broth method, according to CLSI guidelines (Patel J. B., 2015). The cell inocula were prepared using the colony resuspension method. The minimum inhibitory concentrations (MICs) were defined as the lowest concentration that provided no growth, as determined by measurement of the OD600nm using a Synergy H1 microplate reader (BioTek). Susceptibility testing was performed in MHB II with a final volume of 100 μL. PAI3N (Bachem Americas) was solubilized in MHB II. […] Solvent controls were included in each plate.
# (§2) The Fractional Inhibitory Concentration Index (FICI) was used to assess the synergy of PAI3N in combination with different antibiotics. The FICI represents the ΣFIC of each drug. The FICI for each drug was calculated using the following formula: FICI=FICA+FICB=(CA/MICA)+(CB/MICB). Where MICA and MICB are the MICs of drugs A (PAI3N/NMP) and B (antibiotic) alone, and CA and CB are the MICs of the drugs in combination. The effects of PAβN or NMP in combination with antibiotics were classified as: synergistic (FICI<0.5), additive (FICI>0.5-1.0), indifferent (FICI>1.0-2.0), and antagonistic (FICI>2.0). Fold increases in resistance provided by efflux pumps were calculated by dividing the MIC values of strains expressing efflux pumps by the MIC value of EKO-35.
# EKO-35 araC::acrD = assay: MIC susceptibility profiling, efflux platform; settings: for Fold change of MICs: EKO-35 araC::acrD compared to EKO-35
# Outline: (§3)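 Turbidity (OD600, pre-incubation subtracted) defined growth after 18 h at 37 °C in MHB II. The inoculum was diluted 1/2000 from an OD600 ~1.0 PBS suspension of an overnight LB culture. Compounds were run as duplicate twofold dilutions.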
# EKO-35 araC::acrB = assay: MIC susceptibility profiling, efflux platform; settings: for Fold change of MICs: EKO-35 araC::acrB compared to EKO-35; for MIC: Escherichia coli, Table 13A, non-porinated, technical duplicate, read-out: Minimum Inhibitory Concentration, EKO-35 araC::acrB
# Outline: as §3
# [1] = tested on: EKO-35 araC::mexCD (MexCD from P. aeruginosa); assay: MIC susceptibility profiling, efflux platform; settings: for Fold change of MICs: EKO-35 araC::mexCD compared to EKO-35; for MIC: Table 13B, non-porinated, technical duplicate, read-out: Minimum Inhibitory Concentration, EKO-35 araC::mexCD
# Outline: as §3
# EKO-35 araC::mdtBC = assay: MIC susceptibility profiling, efflux platform; settings: for Fold change of MICs: EKO-35 araC::mdtBC compared to EKO-35; for MIC: Escherichia coli, Table 13B, non-porinated, technical duplicate, read-out: Minimum Inhibitory Concentration, EKO-35 araC::mdtBC
# Outline: as §3
# EKO-35-Pore = assay: MIC susceptibility profiling, porinated strain; settings: for Fold changes of MICs: EKO-35-Pore compared to EKO-35-Pore (reference); for MIC: Escherichia coli, technical duplicate
# Outline: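 E. coli strains carrying a genomically integrated constitutive fhuA ΔC/Δ4L pore were grown 18 h in LB at 37 °C, then diluted 1/2000 in MHB II from OD600 ~1.0. Compounds were tested in duplicate, 2-fold serial titration, for 18 h at 37 °C with shaking. MIC came from OD600 with the pre-incubation background subtracted.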
# [2] = tested on: wild-type E. coli K-12 str. BW25113; assay: microbe, parasite or virus in culture; settings: Escherichia coli, BW25113, technical duplicate
# Outline: as §3
# E. coli ΔtolC = assay: microbe, parasite or virus in culture; settings: for MIC: Escherichia coli, 18 h, read-out: Minimum Inhibitory Concentration, ΔtolC; for Minimum inhibitory concentration (MIC), ΔtolC: Table 10, without pore, technical duplicate
# Outline: as §3
# E. coli EKO-35 = assay: microbe, parasite or virus in culture; settings: for Fold change of MICs: EKO-35 compared to EKO-35 (reference); for MIC: Escherichia coli, EKO35, technical duplicate
# Outline: as §3
# [3] = tested on: EKO-35 strains producing different efflux pumps (EKO-35 araC::X); assay: Checkerboard synergy (FICI) of PAβN or NMP with antibiotics
# Description: as §1, §2
# [4] = K-12, antibiotic alone (PAβN checkerboard)
# [5] = K-12, antibiotic in combination with PAβN
# [6] = strain K-12, antibiotic in combination with NMP
# [7] = Table 10, with pore, read-out: Minimum inhibitory concentration (MIC), Pore EKO-35
# [8] = Table 14A, porinated, read-out: Minimum inhibitory concentration, EKO-35-Pore
# [9] = Table 10, without pore, read-out: Minimum inhibitory concentration (MIC), K-12
# [10] = Table 13A, non-porinated, read-out: Minimum Inhibitory Concentration, K-12
# [11] = Table 10, without pore, read-out: Minimum inhibitory concentration (MIC), EKO-35
# [12] = Table 13A, non-porinated, read-out: Minimum Inhibitory Concentration, EKO-35
# [13] = EKO-35 acrB, antibiotic in combination with PAβN
# [14] = EKO-35 mdtEF, PAβN + antibiotic
# [15] = strain EKO-35 acrB, NMP + antibiotic
# [16] = strain EKO-35 acrB, antibiotic in combination with NMP
# [17] = strain EKO-35 acrD, NMP + antibiotic
# [18] = strain EKO-35 acrEF, NMP + antibiotic
structure (smiles),measurement,setting,value
CC(=O)O[C@H]1C[C@@]2(C)[C@@H](C[C@@H](O)[C@H]3[C@@]4(C)CC[C@@H](O)[C@@H](C)[C@@H]4CC[C@@]32C)/C1=C(\CCC=C(C)C)C(=O)O [fusidic acid],Effect,"wild-type E. coli K-12; K-12, NMP + antibiotic",Synergistic
same,FICI,"wild-type E. coli K-12; K-12, NMP + antibiotic",0.375
same,Effect,"wild-type E. coli K-12; K-12, PAβN + antibiotic",Synergistic
same,FICI,"wild-type E. coli K-12; K-12, PAβN + antibiotic",0.156
same,MICb Alone,wild-type E. coli K-12; [4],1024 µg/mL
same,MICb Combined,wild-type E. coli K-12; [5],32 µg/mL
same,Effect,"wild-type E. coli K-12; strain K-12, NMP + antibiotic",Synergistic (Synergy (FICI ≤0.5))
same,FICI,"wild-type E. coli K-12; strain K-12, NMP + antibiotic",0.375
same,MICb Alone,"wild-type E. coli K-12; strain K-12, antibiotic alone",1024 µg/mL
same,MICb Combined,wild-type E. coli K-12; [6],128 µg/mL
same,Fold change of MICs,EKO-35 araC::acrD,32 fold
same,Fold change of MICs,EKO-35 araC::acrB,128 fold
same,MIC,EKO-35 araC::acrB,400 µg/mL
same,Fold change of MICs,[1],4 fold
same,MIC,[1],12.5 µg/mL
same,Fold change of MICs,EKO-35 araC::mdtBC,2 fold
same,MIC,EKO-35 araC::mdtBC,6.25 µg/mL
same,Fold changes of MICs,EKO-35-Pore,1 fold
same,MIC,EKO-35-Pore; [7],0.391 µg/mL
same,MIC,EKO-35-Pore; [8],0.391 µg/mL
same,MIC,[2]; [9],400 µg/mL
same,MIC,[2]; [10],400 µg/mL
same,MIC,E. coli ΔtolC,3.12 µg/mL
same,"Minimum inhibitory concentration (MIC), ΔtolC",E. coli ΔtolC,3.125 µg/mL
same,Fold change of MICs,E. coli EKO-35,1 fold
same,MIC,E. coli EKO-35; [11],3.12 µg/mL
same,MIC,E. coli EKO-35; [12],3.12 µg/mL
same,Effect,"[3]; EKO-35 acrB, NMP + antibiotic",Synergistic
same,FICI,"[3]; EKO-35 acrB, NMP + antibiotic",0.500
same,Effect,"[3]; EKO-35 acrB, PAβN + antibiotic",Synergistic
same,FICI,"[3]; EKO-35 acrB, PAβN + antibiotic",0.129
same,MICb Combined,[3]; [13],4 µg/mL
same,Effect,"[3]; EKO-35 acrD, NMP + antibiotic",Additive
same,FICI,"[3]; EKO-35 acrD, NMP + antibiotic",0.563
same,Effect,"[3]; EKO-35 acrD, PAβN + antibiotic",Synergistic
same,FICI,"[3]; EKO-35 acrD, PAβN + antibiotic",0.141
same,MICb Alone,"[3]; EKO-35 acrD, antibiotic alone (PAβN checkerboard)",256 µg/mL
same,MICb Combined,"[3]; EKO-35 acrD, antibiotic in combination with PAβN",4 µg/mL
same,Effect,"[3]; EKO-35 acrEF, NMP + antibiotic",Additive
same,FICI,"[3]; EKO-35 acrEF, NMP + antibiotic",0.750
same,Effect,"[3]; EKO-35 acrEF, PAβN + antibiotic",Synergistic
same,MICb Alone,"[3]; EKO-35 acrEF, antibiotic alone (PAβN checkerboard)",32 µg/mL
same,MICb Combined,"[3]; EKO-35 acrEF, antibiotic in combination with PAβN",8 µg/mL
same,Effect,"[3]; EKO-35 mdtEF, NMP + antibiotic",Synergistic
same,Effect,[3]; [14],Synergistic
same,FICI,[3]; [14],0.250
same,MICb Alone,"[3]; EKO-35 mdtEF, antibiotic alone (PAβN checkerboard)",64 µg/mL
same,MICb Combined,"[3]; EKO-35 mdtEF, antibiotic in combination with PAβN",8 µg/mL
same,Effect,[3]; [15],Synergistic (Synergy (FICI ≤0.5))
same,FICI,[3]; [15],0.500
same,MICb Combined,[3]; [16],256 µg/mL
same,Effect,[3]; [17],Additive (additive (FICI >0.5-1.0))
same,FICI,[3]; [17],0.563
same,MICb Alone,"[3]; strain EKO-35 acrD, antibiotic alone",256 µg/mL
same,MICb Combined,"[3]; strain EKO-35 acrD, antibiotic in combination with NMP",16 µg/mL
same,Effect,[3]; [18],Additive (additive (FICI >0.5-1.0))
same,FICI,[3]; [18],0.750
same,MICb Alone,"[3]; strain EKO-35 acrEF, antibiotic alone",32 µg/mL
same,MICb Combined,"[3]; strain EKO-35 acrEF, antibiotic in combination with NMP",16 µg/mL
same,Effect,"[3]; strain EKO-35 mdtEF, NMP + antibiotic",Synergistic (Synergy (FICI ≤0.5))
same,MICb Alone,"[3]; strain EKO-35 mdtEF, antibiotic alone",64 µg/mL
same,MICb Combined,"[3]; strain EKO-35 mdtEF, antibiotic in combination with NMP",8 µg/mL
CC(=O)NC[C@H]1CN(c2ccc(N3CCOCC3)c(F)c2)C(=O)O1 [linezolid],Effect,"wild-type E. coli K-12; K-12, NMP + antibiotic",Synergistic
same,FICI,"wild-type E. coli K-12; K-12, NMP + antibiotic",0.375
same,Effect,"wild-type E. coli K-12; K-12, PAβN + antibiotic",Synergistic
same,FICI,"wild-type E. coli K-12; K-12, PAβN + antibiotic",0.125
same,MICb Alone,wild-type E. coli K-12; [4],256 µg/mL
same,MICb Combined,wild-type E. coli K-12; [5],16 µg/mL
same,Effect,"wild-type E. coli K-12; strain K-12, NMP + antibiotic",Synergistic (Synergy (FICI ≤0.5))
same,FICI,"wild-type E. coli K-12; strain K-12, NMP + antibiotic",0.375
same,MICb Alone,"wild-type E. coli K-12; strain K-12, antibiotic alone",256 µg/mL
same,MICb Combined,wild-type E. coli K-12; [6],32 µg/mL
same,Fold change of MICs,EKO-35 araC::acrD,1 fold
same,MIC,"EKO-35 araC::acrD; Escherichia coli, Table 13A, non-porinated, technical duplicate, read-out: Minimum Inhibitory Concentration, EKO-35 araC::acrD",7.81 µg/mL
same,Fold change of MICs,EKO-35 araC::acrB,32 fold
same,MIC,EKO-35 araC::acrB,250 µg/mL
same,Fold change of MICs,[1],2 fold
same,MIC,[1],15.6 µg/mL
same,Fold change of MICs,EKO-35 araC::mdtBC,1 fold
same,MIC,EKO-35 araC::mdtBC,3.91 µg/mL
same,Fold changes of MICs,EKO-35-Pore,1 fold
same,MIC,EKO-35-Pore; [7],3.91 µg/mL
same,MIC,EKO-35-Pore; [8],3.91 µg/mL
same,MIC,[2]; [9],500 µg/mL
same,MIC,[2]; [10],500 µg/mL
same,MIC,E. coli ΔtolC,7.81 µg/mL
same,"Minimum inhibitory concentration (MIC), ΔtolC",E. coli ΔtolC,7.813 µg/mL
same,Fold change of MICs,E. coli EKO-35,1 fold
same,MIC,E. coli EKO-35; [11],7.81 µg/mL
same,MIC,E. coli EKO-35; [12],7.81 µg/mL
same,Effect,"[3]; EKO-35 acrB, NMP + antibiotic",Synergistic
same,FICI,"[3]; EKO-35 acrB, NMP + antibiotic",0.281
same,Effect,"[3]; EKO-35 acrB, PAβN + antibiotic",Synergistic
same,MICb Combined,[3]; [13],16 µg/mL
same,Effect,[3]; [15],Synergistic (Synergy (FICI ≤0.5))
same,FICI,[3]; [15],0.281
same,MICb Combined,[3]; [16],8 µg/mL
